The subject of one experiment is HIV-1IIIB. Nature of the experiment: HIV-1 antiviral assay in CEM-SS cells (MTS readout). The experiment is classed as cell-based.
Another experiment concerns HCMV strain AD169. Nature of the experiment: HCMV plaque formation assay in MRC-5 cells. The note with it: for inhibition of HCMV plaque formation as compared to the virus control experiment: 10 micrograms per ml, 7-10 days.
Another experiment concerns HUVEC. Nature of the experiment: Endothelial tube formation assay. The experiment is classed as cell-based, human. To be noted: 10 micrograms per ml, 20 hours. An excerpt: Positive control was vehicle only.
The subject of experiment [1] is Primary Human endothelial cells (HUVEC). Nature of the experiment: Endothelial cell migration assay. The note with it: 10 micrograms per ml, 22 hours. The experiment is classed as cell-based.
The subject of the next experiment is murine spleen cells. Nature of the experiment: Th1/Th2 cytokine profiling assay (Ovalbumin-restimulated spleen cells, CBA kit). The experiment is classed as cell-based, Balb/c mice. The note with it: 10 micrograms per ml, Ovalbumin restimulation, 72 hours.
For experiment [2], the system named is hepatitis B virus (HBV) ayw strain. Nature of the experiment: HBV experimental assay system (HepG2-2.2.15, TaqMan PCR of secreted HBV DNA). The note with it: 10 micrograms per ml; HepG2-2.2.15, six days, HBV DNA by TaqMan PCR. The experiment is classed as cell-based. An excerpt:
HepG2-2.2.15 is a stable cell line containing the hepatitis B virus (HBV) ayw strain genome (ATCC Cat. No. CRL-11997). Antiviral compounds blocking any late step of viral replication such as transcription, translation, pregenome encapsidation, reverse transcription, particle assembly and release can be identified and characterized using this cell line. In this assay, an active compound will reduce the production of secreted HBV from cells, measured by utilizing real time quantitative PCR (TaqMan) assay to directly and accurately measure HBV DNA copies.
HepG2-2.2.15 cells were plated in 96-well microtiter plates. After 16-24 hours the confluent monolayer of HepG2-2.2.15 cells was washed and the medium was replaced with complete medium containing test peptides—10 micrograms per ml—in duplicate. […] Six days following the initial administration of the peptides, the cell culture supernatants was collected, treated with pronase and DNAse and then used in a real-time quantitative TaqMan PCR assay. The PCR-amplified HBV DNA was detected in real-time by monitoring increases in fluorescence signals that result from the exonucleolytic degradation of a quenched fluorescence probe molecule that hybridizes to the amplified HBV DNA. […] Antiviral activity was calculated from the reduction in HBV DNA levels (% virus control). […]
In general terms: In qPCR the cycle at which signal appears reflects the starting amount.

Residues, ends and D or L forms follow the SMILES beside them. No end group written: not given here.

With `Cc1cn([C@H]2C[C@H](N=[N+]=[N-])[C@@H](CO)O2)c(=O)[nH]c1=O` [AZT], the “antiviral activity of positive control compounds (HIV-1)” value in the experiment on HIV-1IIIB is “expected levels of antiviral activity”.
In the case of `Nc1nc(O)c2ncn(COC(CO)CO)c2n1` [Ganciclovir, reference compound], in the experiment on HCMV strain AD169 (positive control, HCMV AD169), the “antiviral activity of positive control compound (HCMV)” value is “expected levels of antiviral activity”.
As for `CC(C)[C@H](NC(=O)[C@H](CC(=O)O)NC(=O)[C@H](CCCCN)NC(=O)[C@@H](N)CCCN=C(N)N)C(=O)N[C@@H](Cc1ccc(O)cc1)C(=O)O` [Peptide 2, Arg-Lys-Asp-Val-Tyr-OH] (H-RKDVY-OH), in the experiment on HUVEC, the “inhibition of the tube formation of human endothelial cells” value was found to be 31%. Further, the “inhibition of HCMV plaque formation as compared to the virus control experiment” value in the experiment on HCMV strain AD169 is 1.4%. Further, the “inhibition of the migration of human endothelial cells” value in experiment [1] is 7%. Also, in the experiment on murine spleen cells, the “change of the production of TNF-alpha (in words)” value is “did not significantly change”, the “decrease of the production of IFN-gamma” value came to 38.0%, the “decrease of the production of IL-5” value turned out to be 28.2% and the “induction of the production of IL-2” value turned out to be 22.2%. Also, the “induction of the production of IL-4” value with murine spleen cells stood at 70.6%. Also, in experiment [2], the “inhibition of HBV replication as compared to the virus control infection” value is recorded as 6.2%.
As for `CC(C)(C)NC(=O)[C@@H]1CN(Cc2cccnc2)CCN1C[C@@H](O)C[C@@H](Cc1ccccc1)C(=O)N[C@H]1c2ccccc2C[C@H]1O` [indinavir], the “antiviral activity of positive control compounds (HIV-1)” value in the experiment with HIV-1IIIB is “expected levels of antiviral activity”.
“Arg-Lys-Glu-Val-Tyr-OH (RKEVY-OH) [Peptide 1, Splenopentin, commercially available known peptide]”: in the experiment on HUVEC, the “inhibition of the tube formation of human endothelial cells” value was 22%. Further, in the experiment with HCMV strain AD169, the “inhibition of HCMV plaque formation as compared to the virus control experiment” value is “no effect”. In experiment [1], the “inhibition of the migration of human endothelial cells” value is on record as “did not inhibit”. In the experiment on murine spleen cells, the “change of the production of IL-5 (in words)” value was “did not significantly change”, the “change of the production of TNF-alpha (in words)” value is given as “did not significantly change”, the “induction of the production of IFN-γ” value is reported as 38.9% and the “induction of the production of IL-2” value was found to be 68.5%. Besides, the “induction of the production of IL-4” value in the experiment with murine spleen cells amounted to 68.1%. In experiment [2], the “inhibition of HBV replication as compared to the virus control infection” value was 19.5%.
